Measured values: patent US20220280542A1, “PHOSPHORAMIDATES FOR THE TREATMENT OF HEPATITIS B VIRUS” (priority 2016, published 2022)

Legend:
Type in all cases: cell-based
[1] = Cytotoxicity by XTT staining in the HBV efficacy assay; conditions: human, HepG2.2.15 cells
Procedure: HepG2.2.15 cells (100 μL) in RPMI1640 medium with 10% fetal bovine serum was added to all wells of a 96-well plate at a density of 1×10^4 cells per well and the plate was incubated at 37° C. in an environment of 5% CO2 for 24 hours. Following incubation, six ten-fold serial dilutions of test compound prepared in RPMI1640 medium with 10% fetal bovine serum were added to individual wells of the plate in triplicate. Six wells in the plate received medium alone as a virus only control. The plate was incubated for 6 days at 37° C. in an environment of 5% CO2. The culture medium was changed on day 3 with medium containing the indicated concentration of each compound. One hundred microliters of supernatant was collected from each well for analysis of viral DNA by qPCR and cytotoxicity was evaluated by XTT staining of the cell culture monolayer on the sixth day.
The 50% cytotoxic concentration for the test materials are derived by measuring the reduction of the tetrazolium dye XTT in the treated tissue culture plates. XTT is metabolized by the mitochondrial enzyme NADPH oxidase to a soluble formazan product in metabolically active cells. XTT solution was prepared daily as a stock of 1 mg/mL in PBS. Phenazine methosulfate (PMS) stock solution was prepared at 0.15 mg/mL in PBS and stored in the dark at −20° C. XTT/PMS solution was prepared immediately before use by adding 40 μL of PMS per 1 mL of XTT solution. Fifty microliters of XTT/PMS was added to each well of the plate and the plate incubated for 2-4 hours at 37° C. The 2-4 hour incubation has been empirically determined to be within linear response range for XTT dye reduction with the indicated numbers of cells for each assay. Adhesive plate sealers were used in place of the lids, the sealed plate was inverted several times to mix the soluble formazan product and the plate was read at 450 nm (650 nm reference wavelength) with a Molecular Devices SpectraMax Plus 384 spectrophotometer. Data were collected by Softmax 4.6 software and imported into an Excel spreadsheet for analysis.

[2] = Cytotoxicity (CC50) Huh-7; conditions: human, Huh-7 cells
[3] = Cytotoxicity (CC50) HepG2; conditions: human, HepG2 cells
[4] = Cytotoxicity (CC50) BxPC3; conditions: human, BxPC3 cells
[5] = Cytotoxicity (CC50) CEM; conditions: human, CEM cells
[6] = Cytotoxicity (CC50) A204; conditions: human, A204 cells
[7] = Cytotoxicity (CC50) IEC-6; conditions: rat, IEC-6 cells
[8] = Cytotoxicity (CC50) H9c; conditions: rat, H9c cells
[9] = Cytotoxicity (CC50) A549; conditions: human, A549 cells
[10] = Cytotoxicity (CC50) Vero; conditions: African green monkey, Vero cells

Row | SMILES | CC50 at 6 days [1] [µM] | CC50 [2] [µM] | CC50 [3] [µM] | CC50 [4] [µM] | CC50 [5] [µM] | CC50 [6] [µM] | CC50 [7] [µM] | CC50 [8] [µM] | CC50 [9] [µM] | CC50 [10] [µM]
1 | Cc1cn([C@H]2O[C@@H](CO[P@@](=O)(N[C@@H](C)C(=O)OC(C)C)Oc3ccccc3)[C@H](O)[C@H]2F)c(=O)[nH]c1=O [EIDD-02173] | > 100 | > 400 | > 400 | > 400 | 140 | 330 | 307 | 344 | > 400 | > 400
2 | Cc1cn([C@H]2O[C@@H](CO)C(O)C2F)c(=S)[nH]c1=O (stereo partly drawn) [EIDD-02333-1] | > 100 |  |  |  |  |  |  |  |  | 
3 | Nc1ccn([C@@H]2CS[C@H](CO)O2)c(=O)n1 [3TC (Lamivudine), Lamivudine, reference compound] | > 10 | > 400 | > 400 | > 400 |  |  |  |  |  | 
4 | Cc1cn([C@H]2O[C@@H](CO)[C@H](O)[C@H]2F)c(=O)[nH]c1=O [EIDD-02020, Clevudine, reference compound] | > 100 | > 400 | > 400 | > 400 | > 400 | > 400 | > 400 | > 400 | > 400 | > 400
5 | Cc1cn([C@H]2O[C@@H](CO[P@](=O)(N[C@@H](C)C(=O)OC(C)C)Oc3ccccc3)C(O)C2F)c(=S)[nH]c1=O (stereo partly drawn) [EIDD-02334-1] | > 100 |  |  |  |  |  |  |  |  | 
6 | Cc1cn([C@H]2O[C@@H](CO[P@](=O)(N[C@@H](C)C(=O)OC(C)C)Oc3ccccc3)[C@H](O)[C@H]2F)c(=O)[nH]c1=O [EIDD-02174] | > 100 | 290 | > 400 | > 400 | > 400 | 374 | 338 | 311 | > 400 | > 400
7 | Cc1cn([C@H]2O[C@@H](CO[P@@](=O)(N[C@@H](C)C(=O)OC(C)C)Oc3ccccc3)C(O)C2F)c(=S)[nH]c1=O (stereo partly drawn) [EIDD-02335-1] | > 100 |  |  |  |  |  |  |  |  | 
8 | Cc1cn([C@H]2O[C@@H](CO[P@](=O)(N[C@@H](C)C(=O)OC(C)C)Oc3ccccc3)[C@H](O[P@](=O)(N[C@@H](C)C(=O)OC(C)C)Oc3ccccc3)[C@H]2F)c(=O)[nH]c1=O [EIDD-02309] | 85.1 |  |  |  |  |  |  |  |  | 
9 | Cc1cn([C@H]2O[C@@H](CO[P@@](=O)(N[C@@H](C)C(=O)OC(C)C)Oc3ccccc3)[C@H](O[P@@](=O)(N[C@@H](C)C(=O)OC(C)C)Oc3ccccc3)[C@H]2F)c(=O)[nH]c1=O [EIDD-02308] | > 100 |  |  |  |  |  |  |  |  | 
